The test system of series [1] is Streptococcus faecium ATCC 8043. Briefly: Minimal Inhibitory Concentrations against common test organisms. Conditions: Enterococcus faecium, ATCC8043. The series is classed as cell-based.
Series [2] has as its system Staphylococcus epidermidis 3519. The description is as above. The series is classed as cell-based.
Another series relates to Esherichia coli Juhl. The series is described as above. The series is classed as cell-based.
The subject of series [3] is Staphylococcus aureus ATCC 6538. Described as above. The series is classed as cell-based.
Another series in a line: solubility. Format: physicochemical.
For the next series, the system named is Micrococcus luteus 9341. Put plainly: Minimal Inhibitory Concentrations against common test organisms. The series is classed as cell-based.
In series [4] the test system is Pseudomonas aeruginosa A-5007. The description is as above. The note with it: A5007. Format: cell-based.
Series [5] concerns Streptococcus pyogenes 930. The description is as above. The series is classed as cell-based.
Series [6] has as its system Candida albicans ATCC 10231. Described as above. Format: cell-based. Conditions: ATCC10231.
A further series has as its system Gram-positive bacteria. Briefly: antibiotic activity against Gram-positive bacteria in vitro. Conditions: including strains resistant to currently used therapeutic antibiotics. The series is classed as cell-based.
Series [7] has as its system Propionibacterium acnes 132. Briefly: Minimal Inhibitory Concentrations against common test organisms. The series is classed as cell-based. The note with it: Cutibacterium acnes.
A further series relates to Bacteroides fragilis 784. Described as above. Format: cell-based.
Another series has as its system Micrococcus luteus 4698. The description is as above. Format: cell-based.
The mark [8] stands for this setting: ATCC6538, Staphylococcus aureus ATCC 6538, read-out: Minimal Inhibitory Concentrations.

Values after ≈ are worked out from the molar mass of the structure shown. Like-named read-outs stand apart in the source and are kept apart here.

In series [1], `CCc1c(Cl)c(O)c(Cl)c(O)c1C(=O)OC1C(O)C(C)OC(OCC2=CC=CCC(O)C(C)=CC(CC)C(OC3OC(C)(C)C(O)C(O)C3OC(=O)C(C)C)C(C)=CC(C)=CCC(C(C)O)OC2=O)C1OC` (centres unmarked) [Tiacumicin D] registered an MIC greater than 25 µg/mL. In [2], this molecule showed an MIC greater than 25 µg/mL. Further, the MIC in the series on Esherichia coli Juhl is greater than 25 µg/mL. In addition, the MIC in series [3] (setting [8]) is greater than 25 µg/mL. Besides, in the series “solubility”, the solubility in acetonitrile result is reported as “readily soluble”, the solubility in benzene entry is “sparingly soluble”, the solubility in chloroform result is given as “sparingly soluble” and the solubility in ether result is listed as “sparingly soluble”. For the same molecule, in the series “solubility”, the solubility in hexane result is “insoluble”, the solubility in methanol entry is given as “readily soluble” and the solubility in water entry was “insoluble”. This molecule also came in with an MIC against Micrococcus luteus 9341 of 0.2 µg/mL (≈ 0.189 µM). Moreover, the MIC in [4] was greater than 25 µg/mL. The molecule also had an MIC in series [5] greater than 25 µg/mL.
Take `CCc1c(Cl)c(O)c(Cl)c(O)c1C(=O)OC1C(C)OC(OCC2=CC=CCC(O)C(C)=CC(CC)C(OC3OC(C)(C)C(O)C(O)C3OC(=O)C(C)C)C(C)=CC(C)=CCC(C(C)O)OC2=O)C(OC)C1O` (centres unmarked) [Tiacumicin C]: the MIC is 100 µg/mL (≈ 94.5 µM) in [1]; 25 µg/mL (≈ 23.6 µM) in series [2]; greater than 100 µg/mL with Esherichia coli Juhl; 50 µg/mL (≈ 47.3 µM) in series [3] (setting [8]); no more than 0.39 µg/mL in the series on Micrococcus luteus 9341; greater than 100 µg/mL in series [6]. The MIC was greater than 100 µg/mL in series [4] and 25 µg/mL (≈ 23.6 µM) in series [5]. In “solubility”, the solubility in acetonitrile result is “readily soluble”. For the same molecule, the solubility in benzene entry in “solubility” is “sparingly soluble”. In the series “solubility”, the solubility in chloroform result is given as “sparingly soluble”. For the same molecule, the solubility in ether result in “solubility” was “sparingly soluble”. Further, the solubility in hexane entry in the series “solubility” was “insoluble”. For the same molecule, the solubility in methanol result in the series “solubility” is on record as “readily soluble”. The solubility in water result in “solubility” is “insoluble”. The “antibiotic activity against a number of Gram-positive bacteria” value with Gram-positive bacteria is given as “possessed antibiotic activity”.
In [1], `CCC(=O)OC1C(OC2C(C)=CC(C)=CCC(C(C)O)OC(=O)C(COC3OC(C)C(OC(=O)c4c(O)c(Cl)c(O)c(Cl)c4CC)C(O)C3OC)=CC=CCC(O)C(C)=CC2CC)OC(C)(C)C(O)C1O` (centres unmarked) [Tiacumicin E] showed an MIC of 12.5 µg/mL (≈ 12 µM). Further, in series [2], the MIC came out at 12.5 µg/mL (≈ 12 µM). For the same molecule, the MIC against Esherichia coli Juhl was greater than 100 µg/mL. Also, the MIC in series [3] (setting [8]) is 2.5 µg/mL (≈ 2.39 µM). Also, in the series “solubility”, the solubility in acetonitrile result is given as “readily soluble”, the solubility in benzene result is reported as “sparingly soluble”, the solubility in chloroform entry was “sparingly soluble” and the solubility in ether result is listed as “sparingly soluble”. In the series “solubility”, the solubility in hexane result is listed as “insoluble”, the solubility in methanol result was “readily soluble” and the solubility in water entry was “insoluble”. In [4], this molecule displayed an MIC greater than 100 µg/mL. The same molecule gave an MIC in series [5] of 50 µg/mL (≈ 47.9 µM).
`CCc1c(Cl)c(O)c(Cl)c(O)c1C(=O)OC1C(C)OC(OCC2=CC=CCC(O)C(C)=CC(CC)C(OC3OC(C)(C)C(O)C(OC(=O)C(C)C)C3O)C(C)=CC(C)=CCC(C(C)O)OC2=O)C(OC)C1O` (centres unmarked) [Tiacumicin F] displayed an MIC in series [1] of 6.2 µg/mL (≈ 5.86 µM). In series [2], this molecule had an MIC of 12.5 µg/mL (≈ 11.8 µM). Moreover, the MIC with Esherichia coli Juhl is greater than 100 µg/mL. In [3] (setting [8]), the MIC turned out to be 12.5 µg/mL (≈ 11.8 µM). In the series “solubility”, the solubility in acetonitrile result is “readily soluble”, the solubility in benzene entry is listed as “sparingly soluble”, the solubility in chloroform result is reported as “sparingly soluble” and the solubility in ether result is on record as “sparingly soluble”. Besides, in the series “solubility”, the solubility in hexane result is reported as “insoluble”, the solubility in methanol entry is recorded as “readily soluble” and the solubility in water result was “insoluble”. In addition, the MIC against Micrococcus luteus 9341 was 6.2 µg/mL (≈ 5.86 µM). For the same molecule, the MIC in series [4] was greater than 100 µg/mL. Also, the MIC in series [5] came to 12.5 µg/mL (≈ 11.8 µM).
Turning to `CCc1c(Cl)c(O)c(Cl)c(O)c1C(=O)OC1C(C)OC(OCC2=CC=CCC(O)C(C)=CC(CC)C(OC3OC(C)(C)C(OC(=O)C(C)C)C(O)C3O)C(C)=CC(C)=CCC(C(C)O)OC2=O)C(OC)C1O` (centres unmarked) [Tiacumicin B], the MIC in series [1] was 12.5 µg/mL (≈ 11.8 µM); in series [2], 12.5 µg/mL (≈ 11.8 µM); against Esherichia coli Juhl, greater than 100 µg/mL; in series [3] (Staphylococcus aureus, ATCC6538, read-out: Minimal Inhibitory Concentrations), 12.5 µg/mL (≈ 11.8 µM); in series [7] it was 6.25 µg/mL (≈ 5.91 µM); in the series with Bacteroides fragilis 784, greater than 100 µg/mL. The MIC in the series with Micrococcus luteus 9341 is 0.1 µg/mL (≈ 0.0945 µM); in series [6], greater than 100 µg/mL; in [4] it was greater than 100 µg/mL; in series [5] it was 12.5 µg/mL (≈ 11.8 µM). In addition, in the series “solubility”, the solubility in acetonitrile result is reported as “readily soluble”. Further, the solubility in benzene entry in the series “solubility” is recorded as “sparingly soluble”. In addition, the solubility in chloroform entry in the series “solubility” was “sparingly soluble”. For the same molecule, the solubility in ether result in “solubility” was “sparingly soluble”. Moreover, the solubility in hexane result in “solubility” is recorded as “insoluble”. In addition, the solubility in methanol entry in “solubility” was “readily soluble”. For the same molecule, in the series “solubility”, the solubility in water entry is given as “insoluble”. Further, the “antibiotic activity against a number of Gram-positive bacteria” value in the series on Gram-positive bacteria was “possessed antibiotic activity”.
Consider `CCC1CC=C(C)C=C(C)C(OC2OC(C)(C)C(OC(C)=O)C(O)C2O)C(CC)C=C(C)C(O)CC=CC=C(C)C(=O)O1` (centres unmarked) [Tiacumicin A], for which the MIC in the series with Micrococcus luteus 4698 amounted to 0.39 µg/mL (≈ 0.645 µM); in [2] it was 100 µg/mL (≈ 165 µM); in series [3] (setting [8]) it was 100 µg/mL (≈ 165 µM); against Micrococcus luteus 9341, 0.1 µg/mL (≈ 0.165 µM); in [5] it was 100 µg/mL (≈ 165 µM). The solubility in acetone result in the series “solubility” (acetone) was “sparingly soluble”. Moreover, in the series “solubility”, the solubility in acetonitrile result is given as “sparingly soluble”. Further, in the series “solubility”, the solubility in benzene result is “readily soluble”. Besides, in “solubility”, the solubility in chloroform entry is given as “readily soluble”. The solubility in methanol entry in “solubility” is listed as “readily soluble”. Also, the solubility in water entry in “solubility” is reported as “insoluble”.

For the origin of these results see US4918174A, “Tiacumicin compounds” (Abbott Laboratories, priority 1986, dated 1990).
